# Where a name gives a salt, the structure may show the parent alone.
# Experiments:
# [1] = molecular target: T1, Human Histamine H3 Receptor (Homo sapiens, UniProt Q9Y5N1); assay: Methyl histamine binding in Human Histamine H3 Receptor Cell Line; details: read-out: hH3 Binding Ki
# T1 construct: expressed in transfected cells; host or cells: HEK293T (stably transfected; membrane preparation)
# Procedure: Evaluation of Methyl histamine binding in Human Histamine H3 Receptor Cell Line
# The affinity of test compounds for the histamine 3 (H3) receptor is evaluated in the following manner. […] Cells are scraped from the plate, transferred to centrifuge tubes, washed one time in PBS by centrifugation in a Sorvall RT7 Plus centrifuge (2000 rpm 10 minutes, 4° C.). The resulting pellets are stored at −80° C. until ready for use. Cells are re-suspended in buffer (50 mM Tris pH=7.5) and placed in a Dounce homogenizer, douncing ten times to homogenize cells. The homogenate is spun down by centrifugation (Sorvall RT7 Plus, 1800 rpm 10 minutes, 4° C.). The supernatant is placed in a Corex tube and spun down by centrifugation (Sorvall RC 5c Plus, 17,000 rpm 20 minutes, 4° C.). The pellet is resuspended in buffer (50 mM Tris, pH 7.5). Protein concentration (ug/ul) is determined using the Micro-BCA Protein Determination. The binding assay is set up in a 96 well microtiter plate in a total volume of 250 uL. Non-specific binding is determined in the presence of 10 uM clobenpropit. The final radioligand concentration is 1 nM. The test compound is serially diluted using the Beckman Biomek2000 to a final approximate range of 100 uM to 100 pM. Membranes are suspended in buffer, homogenized in 2 bursts of ten seconds using a Vitris mechanical homogenizer set at power setting 5. Ten μg of membranes are added to each well. Following a one hour incubation at 30° C., the reaction is terminated by the addition of ice cold buffer and rapid filtration with a Packard Filtermate Harvester through a GF/B filter pre-soaked with 1% PEI for one hour. The plate is dried for one hour at 37° C. and 60 μL Microscint Scintillant is added to each well. The CPM per well is measured on a Packard Top Count NXT. Ki values are determined in nM. […] CPM values are expressed as % specific binding and plotted vs compound concentration. A curve is fitted using a four-parameter logistic fit and the IC50 value is determined. The Ki is calculated from this using the Cheng-Prusoff equation: […]=IC50/1+(L/Kd) where L=concentration of free radioligand used in the assay, and Kd is the dissociation constant of the radioligand for the receptor. L is determined for each experiment by counting an aliquot of the diluted radioligand (corresponding to that added to each well) and the Kd has previously been determined under identical conditions for this cell line/radioligand.
# T1 sequence (Q9Y5N1 whole entry): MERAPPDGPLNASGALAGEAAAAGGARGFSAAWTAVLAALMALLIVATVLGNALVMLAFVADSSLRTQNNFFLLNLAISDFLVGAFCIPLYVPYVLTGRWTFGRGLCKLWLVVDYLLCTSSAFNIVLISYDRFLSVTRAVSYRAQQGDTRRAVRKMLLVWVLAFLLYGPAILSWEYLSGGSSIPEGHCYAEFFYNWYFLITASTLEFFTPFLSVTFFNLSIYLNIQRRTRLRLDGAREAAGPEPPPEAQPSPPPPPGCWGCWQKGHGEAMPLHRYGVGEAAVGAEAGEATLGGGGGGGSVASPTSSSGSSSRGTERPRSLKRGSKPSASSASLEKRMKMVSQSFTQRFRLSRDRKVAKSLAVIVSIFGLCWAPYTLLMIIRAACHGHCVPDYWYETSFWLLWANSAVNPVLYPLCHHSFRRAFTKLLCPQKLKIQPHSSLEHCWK
Ki [1] [nM],melting point [°C],Compound
> 100,196 to 198,"Cc1nc2ccccc2n1Cc1ccc(C(=O)N(C)C2CCNCC2)cc1 [Example 44, N-methyl-4-((2-methyl-1H-benzo[d]imidazol-1-yl)methyl)-N-(piperidin-4-yl)benzamide]"
> 100,199 to 201,"CN(C(=O)c1ccc(Cn2cnc3ccccc32)cc1)C1CCNCC1 [Example 45, 4-((1H-benzo[d]imidazol-1-yl)methyl)-n-methyl-N-(piperidin-4-yl)benzamide]"
> 100,178 to 180,"Cc1nc2cc(C#N)ccc2n1-c1ccc(C(=O)N(C)[C@@H]2CCNC2)cc1 [Example 53, (R)-4-(5-cyano-2-methyl-benzoimidazol-1-yl)-N-methyl-N-pyrrolidin-3-yl-benzamide]"
50.1 to 100,–,"Cc1nc2ccccc2n1-c1ccc(C(=O)N(C)C2CCN(C3CCCC3)CC2)c(Cl)c1 [Example 122, 2-chloro-N-(1-cyclopentylpiperidin-4-yl)-N-methyl-4-(2-methyl-1H-benzimidazol-1-yl)benzamide]"
> 100,–,"Cc1nc2ccccc2n1-c1ccc(C(=O)N[C@@H]2CCN(C3CCCCC3)C2)cc1 [Example 137, N-[(3R)-1-cyclohexylpyrrolidin-3-yl]-4-(2-methyl-1H-benzimidazol-1-yl)benzamide]"
> 100,–,"CCN(C(=O)c1ccc(-n2c(C)nc3ccccc32)cc1)[C@@H]1CCNC1 [Example 138, (R)—N-ethyl-4-(2-methyl-1H-benzo[d]imidazol-1-yl)-N-(pyrrolidin-3-yl)benzamide hydrochloride]"
> 100,–,"CCN(C(=O)c1ccc(-n2c(C)nc3ccccc32)cc1)[C@@H]1CCN(C2CCCCC2)C1 [Example 142, N-[(3R)-1-cyclohexylpyrrolidin-3-yl]-N-ethyl-4-(2-methyl-1H-benzimidazol-1-yl)benzamide]"

# Reference: patent publication US20080293771A1, “AZACYCLYLBENZAMIDE DERIVATIVES AS HISTAMINE-3 ANTAGONISTS” (Wyeth, priority 2007, published 2008)
